{"source": "paper PMC10380488", "about": "“Cx43 Hemichannel and Panx1 Channel Modulation by Gap19 and ^10Panx1 Peptides” (International Journal of Molecular Sciences, 2023)", "key": {"[1]": {"target": "T1, Panx1 channels (Rattus norvegicus, UniProt P60570)", "T1 construct": "expressed in transfected cells; host or cells: C6 glioma cells (C6-Panx1), gift of Dr Christian C; Naus", "T1 sequence (P60570 whole entry)": "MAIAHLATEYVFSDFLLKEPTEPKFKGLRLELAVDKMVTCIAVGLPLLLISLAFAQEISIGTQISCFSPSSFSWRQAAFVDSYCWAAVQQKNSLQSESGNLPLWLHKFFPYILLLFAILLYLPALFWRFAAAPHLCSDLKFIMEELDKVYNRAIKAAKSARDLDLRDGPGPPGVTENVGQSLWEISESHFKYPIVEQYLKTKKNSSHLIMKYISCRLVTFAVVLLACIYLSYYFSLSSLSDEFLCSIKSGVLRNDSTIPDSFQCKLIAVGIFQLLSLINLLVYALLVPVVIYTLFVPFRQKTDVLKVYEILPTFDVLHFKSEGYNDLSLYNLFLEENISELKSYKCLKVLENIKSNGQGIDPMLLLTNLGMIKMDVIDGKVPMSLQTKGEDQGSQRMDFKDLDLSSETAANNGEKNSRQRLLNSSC", "experiment": "Whole-cell patch-clamp, unitary Panx1 channel current activity in C6-Panx1 cells", "type": "cell-based", "conditions": "for nominal open probability (NPo) of Panx1 channels: preincubated 45 min, C6-Panx1, step −30 to +70 mV, 30 s, mean ± SEM, control 0.37 ± 0.02; for reduction of NPo of Panx1 channels: vs control", "excerpt": "(§1) We used HeLa cells stably transfected with Cx43 (HeLa-Cx43 [56]); endogenous expression of Panx1 is very low or absent in non-transfected HeLa cells. C6 glioma cells stably transfected with Panx1 (C6-Panx1, C-terminally myc-tagged; kind gift of Dr Christian C. Naus, University of British Columbia, Canada) were used for the Panx1 channel studies; Cx43 expression is low or undetectable [61] in these cells. HeLa cells were maintained in Dulbecco’s modified Eagle’s medium (DMEM; Invitrogen, Gent, Belgium), and C6 cells were grown in DMEM:Ham’s F12 (1:1—Invitrogen, Merelbeke, Belgium), all supplemented with 10% fetal bovine serum (FBS), 2 mM glutamine, 10 U/mL penicillin, 10 µg/mL streptomycin and 0.25 µg/mL fungizone. Stable exogenous expressions were maintained by supplementation of 1 and 3 µg/mL puromycin (Sigma-Aldrich, Bornem, Belgium) for HeLa-Cx43 and C6-Panx1 cells, respectively. Stable transfectants were subcultured into puromycin-free medium 2 days prior to experimentation. Cells were maintained at 37 °C and 10% (HeLa-Cx43) or 5% (C6-Panx1) CO2.\n(§2) All experimental data were obtained with the patch-clamp technique in whole-cell recording mode on HeLa-Cx43 and C6-Panx1 cells. Extracellular solution was composed of the following (in mM): 150 NaCl, 4 CsCl, 2 CaCl2, 2 MgCl2, 2 pyruvic acid, 5 glucose and 5 HEPES at pH of 7.4, while the pipette solution consisted of the following (in mM): 125 CsCl, 10 sodium aspartate (NaAsp), 0.26 CaCl2, 1 MgCl2, 2 EGTA, 10 tetraethylammonium (TEA)-Cl and 5 HEPES at pH 7.2. The free Ca^2+ concentration of the pipette solution was estimated to be ~50 nM as calculated with WEBMAX (https://somapp.ucdmc.ucdavis.edu/pharmacology/bers/maxchelator/webmaxc/webmaxcS.htm; accessed on 20 September 2020). Whole-cell recording was performed under control conditions and in the presence of Gap19 or ^10Panx1. Gap19 was included in the pipette solution, while ^10Panx1 was added externally and preincubated for 45 min. Recordings were commenced 2 min after establishment of the whole-cell configuration. Currents were recorded with an EPC 7 PLUS patch-clamp amplifier (HEKA Elektronik, Germany). Unitary current activities were elicited by stepping the cells from a holding potential of −30 mV to a membrane potential (Vm) of +70 mV for 30 s. Data were digitized at 4 KHz using an NI USB-6221 data acquisition device (National Instruments, Austin, TX, USA) and WinWCP acquisition software designed by Dr. J. Dempster (University of Strathclyde, United Kingdom). Measured currents were filtered by a 7-pole Bessel low-pass filter at 1 KHz cut-off frequency. Transition analysis was performed as reported in [16]. Unitary channel conductances were determined from transition histograms as well as from all-point histograms and were obtained by fitting their frequencies to Gaussian distributions. Channel opening activity is expressed as nominal open probability NPo, denoting the number of active channels in the patch multiplied by the open probability.\n(§3) Data were processed using Clampfit version 11.2 (Molecular Devices, San Jose, USA) and HemiGUI software as previously described. Results are expressed as mean ± SEM (unless otherwise stated), with n giving the number of traces, N the number of cells, and N the number of experiments on different cell culture dishes. Multiple groups were compared by one-way analysis of variance with post-hoc Dunnett’s or Bonferroni multiple comparison tests, making use of GraphPad PRISM 5.0 (GraphPad Software, Inc., La Jolla, CA). Results were considered statistically significant when p ≤ 0.05 (*; # for p ≤ 0.05, **; ## for p ≤ 0.01, ***; ### for p ≤ 0.001, and ****; #### for p ≤ 0.0001)."}, "[2]": {"system": "Cx43 HCs", "experiment": "Whole-cell patch-clamp, unitary Cx43 hemichannel current activity in HeLa-Cx43 cells", "type": "cell-based", "conditions": "for nominal open probability (NPo) of Cx43 HCs: preincubated 45 min, HeLa-Cx43, step −30 to +70 mV, 30 s, mean ± SEM, control 0.48 ± 0.02; for reduction of NPo of Cx43 HCs: vs control; for conductance γ of Cx43 HC, subconductance state, transition histogram / unitary conductance γ of Cx43 HC, fully open state, transition histogram: Figure 3B, mean ± SD", "excerpt": "as §1, §2, §3"}, "[3]": {"system": "Cx43 or Panx1 channels", "conditions": "100 μM extracellular; HeLa cells expressing Cx43 or Panx1; cited from earlier work", "excerpt": "(§4) Connexins and pannexins are two ubiquitous but distinct protein families forming membrane hemichannels (HCs) and channels in the plasma membrane, respectively. They facilitate the exchange of ions and small molecules (MW ≤ 1.5 kDa) between the intracellular and the extracellular compartment upon opening. Among these respective families, connexin-43 (Cx43) and pannexin-1 (Panx1) are the most abundant isotypes in the human body expressed in a wide array of tissues. Panx1 and Cx43 have several common properties, including the following: (i) an analogous tetra-spanning transmembrane topology with ..."}, "[4]": {"system": "Cx46 HC", "conditions": "cited from earlier work", "excerpt": "as §4"}, "[5]": {"target": "T1, Panx1 channels", "conditions": "200 µM extracellular; high extracellular K^+; cited from earlier work", "excerpt": "as §4"}, "[6]": {"system": "Panx1 channel", "conditions": "some evidence; cited from earlier work", "excerpt": "The representative traces depicted in Figure 1A (enlarged display in Supplementary Figure S1) show unitary Panx1 current activities evoked by repeated (every 40 s) Vm steps from a holding potential of −30 mV to +70 mV (with a duration of 30 s) in voltage-clamp experiments (using whole-cell patch-clamp recording). Under control conditions, a single channel conductance of ~65 pS was observed as determined from the channel transition histograms shown in Figure 1B, i.e., below the 100 pS range, which is typical for voltage-dependent Panx1 channel-opening activity. We tested the effec ..."}, "[7]": {"conditions": "100 μM ^10Panx1 extracellular, N = 12, n = 88"}, "[8]": {"conditions": "200 μM ^10Panx1 extracellular, N = 11, n = 97"}}, "note": "Values joined by “and” are separate entries in the source; they are usually repeats but may differ in a detail not shown here. Equal entries are not always repeated. “Also recorded” adds a separate entry of the source."}
{"sequence": "WRQAAFVDSY [^10Panx1]", "values": [{"measurement": "flickering frequency (fast-flickering closures) of Panx1 channel", "setting": "[1]; 100 µM ^10Panx1 extracellular", "value": 67, "unit": "Hz"}, {"measurement": "nominal open probability (NPo) of Panx1 channels", "setting": "[1]; 100 μM ^10Panx1 extracellular, N = 11 cells, n = 106 traces", "value": "0.28 ± 0.03"}, {"measurement": "reduction of NPo of Panx1 channels", "setting": "[1]; 100 μM ^10Panx1 extracellular", "value": "26.0% and ~ 25%"}, {"measurement": "flickering frequency (fast-flickering closures) of Panx1 channel", "setting": "[1]; 200 µM ^10Panx1 extracellular", "value": 84, "unit": "Hz"}, {"measurement": "nominal open probability (NPo) of Panx1 channels", "setting": "[1]; 200 μM ^10Panx1 extracellular, N = 12 cells, n = 116 traces", "value": "0.19 ± 0.01"}, {"measurement": "reduction of NPo of Panx1 channels", "setting": "[1]; 200 μM ^10Panx1 extracellular", "value": 49.5, "unit": "%"}, {"measurement": "flickering frequency (fast-flickering closures) of Panx1 channel", "setting": "[1]; 500 µM ^10Panx1 extracellular", "value": 146, "unit": "Hz"}, {"measurement": "nominal open probability (NPo) of Panx1 channels", "setting": "[1]; 500 μM ^10Panx1 extracellular, N = 11 cells, n = 76 traces", "value": "0.13 ± 0.02"}, {"measurement": "reduction of NPo of Panx1 channels", "setting": "[1]; 500 μM ^10Panx1 extracellular", "value": 66.0, "unit": "%"}, {"measurement": "inhibition of Panx1 channel-opening activity (in words)", "setting": "[1]; ^10Panx1 extracellular, 100, 200 and 500 µM", "value": "Concentration-Dependently Inhibited"}, {"measurement": "effect on open-state events of Panx1, all-point histograms", "setting": "[1]; ^10Panx1 extracellular, 100 and 200 μM, Figure 1C", "value": "clearly decreased the frequency of open-state events; also recorded: open-state peaks decreased in height while the closed-state peaks increased"}, {"measurement": "subconductance gating of Panx1 channels", "setting": "[1]; ^10Panx1 extracellular, Figure 1", "value": "did not induce the subconductance gating of Panx1 channels"}, {"measurement": "nominal open probability (NPo) of Cx43 HCs", "setting": "[2]; 100 μM ^10Panx1 extracellular, N = 12 cells, n = 88 traces", "value": "0.30 ± 0.03"}, {"measurement": "reduction of NPo of Cx43 HCs", "setting": "[2]; 100 μM ^10Panx1 extracellular, significant", "value": 37, "unit": "%"}, {"measurement": "nominal open probability (NPo) of Cx43 HCs", "setting": "[2]; 200 μM ^10Panx1 extracellular, N = 11 cells, n = 97 traces", "value": "0.08 ± 0.01"}, {"measurement": "reduction of NPo of Cx43 HCs", "setting": "[2]; 200 μM ^10Panx1 extracellular", "value": "~ 83% and 83%"}, {"measurement": "nominal open probability (NPo) of Cx43 HCs", "setting": "[2]; 500 μM ^10Panx1 extracellular, N = 8 cells, n = 53 traces", "value": "0.03 ± 0.01"}, {"measurement": "reduction of NPo of Cx43 HCs", "setting": "[2]; 500 μM ^10Panx1 extracellular", "value": 94, "unit": "%"}, {"measurement": "conductance γ of Cx43 HC, subconductance state, transition histogram", "setting": "[2]; [7]", "value": "81 ± 29", "unit": "pS"}, {"measurement": "unitary conductance γ of Cx43 HC, fully open state, transition histogram", "setting": "[2]; [7]", "value": "202 ± 57", "unit": "pS"}, {"measurement": "conductance γ of Cx43 HC, subconductance state, transition histogram", "setting": "[2]; [8]", "value": "78 ± 27", "unit": "pS"}, {"measurement": "unitary conductance γ of Cx43 HC, fully open state, transition histogram", "setting": "[2]; [8]", "value": "216 ± 74", "unit": "pS"}, {"measurement": "conductance γ of Cx43 HC, all-point histogram", "setting": "[2]; Figure 3C, 100 μM ^10Panx1 extracellular", "value": "201 ± 36", "unit": "pS"}, {"measurement": "inhibition of Cx43 HC opening activity (in words)", "setting": "[2]; Gap19 intracellular / ^10Panx1 extracellular, 100-500 μM (Gap19 100–200 μM)", "value": "Inhibited; also recorded: concentration-dependent and significant inhibition; also recorded: inhibits Cx43 HCs over the 100–500 µM concentration range"}, {"measurement": "effect on Cx43 HC gating (fully open state vs subconductance state)", "setting": "[2]; Gap19 intracellular / ^10Panx1 extracellular, from 100 µM", "value": "increasing the frequency of subconductance transitions while decreasing the frequency of transitions to the fully open state; also recorded: reduced the propensity of gating to the main open state but increased the incidence of gating to the HC subconductance state"}, {"measurement": "relative reduction of Cx43 HC function vs Panx1 channel function (selectivity)", "setting": "[2]; ^10Panx1 extracellular, all the concentrations tested (100, 200, 500 μM)", "value": "more strongly reduces Cx43 HC function than Panx1 channel function at all the concentrations tested"}, {"measurement": "selectivity for Cx43 or Panx1 channels", "setting": "[3]", "value": "good selectivity"}, {"measurement": "effect on Cx46 HC peak currents", "setting": "[4]", "value": "partially inhibit Cx46 HC peak currents"}, {"measurement": "effect on ATP release from Panx1-overexpressing cells", "setting": "[5]", "value": "inhibits ATP release"}, {"measurement": "interaction with the pore of the channel protein", "setting": "[6]", "value": "some evidence pointing to an interaction with the pore of the channel protein"}]}
